Values quoted from earlier work as cited in the PKSmart pharmacokinetics tables (Seal et al. 2025).

assay: not given per row; by the article one of three: Lombardo et al. 2013, J Clin Pharmacol 53:178, doi 10.1177/0091270012440282; 'New Drugs at FDA', novel drug approvals for 2021 and 2022 (the article's reference 43); Yap, Li, Chen 2006, J Mol Graph Model 24:383, doi 10.1016; settings: human; in vivo

SMILES	clearance [mL/min/kg]	Vd [L/kg]	half-life [h]
COC(=O)C1=C(C)NC(C)=C(C(=O)OC(C)C)[C@H]1c1cccc2nonc12	9.52		
CCNC[C@H](O)c1ccc(O)cc1	13.6		
CC(C)Nc1nc2cc(Cl)c(Cl)cc2n1[C@H]1O[C@@H](CO)[C@H](O)[C@@H]1O	0.79	0.46	4.32
Cc1ccc(C)c(OCCCC(C)(C)C(=O)O)c1	1.7		
CC(C)(Oc1ccc(CCNC(=O)c2ccc(Cl)cc2)cc1)C(=O)O	1.67		
O=[P@@]1(NCCCl)OCCCN1CCCl	1.23		
CN1CCN2c3ncccc3Cc3ccccc3[C@@H]2C1	8.25		
Nc1ccn(C[C@H](CO)OCP(=O)(O)O)c(=O)n1	2.3		
C=c1c(N)c(O)c2c(c1O)N1C[C@@H]3N[C@@H]3[C@@]1(OC)C=2COC(N)=O	8.23		
CC(=O)N1CCN(c2ccc(OC[C@@H]3CO[C@](Cn4ccnc4)(c4ccc(Cl)cc4Cl)O3)cc2)CC1	8.4		
CC(C)NC[C@@H](O)COc1cccc2ccccc12	13.7		
CC(C)(C)NC[C@@H](O)COc1cccc2c1SCCC2	1.86		
NS(=O)(=O)c1cc(-c2nn[nH]n2)c(NCc2cccs2)cc1Cl	1.29		
CC[C@H](OC(C)=O)C(C[C@@H](C)N(C)C)(c1ccccc1)c1ccccc1	4.09		
N=C=N	20		
COc1ccc(OC)c(Cc2cnc3nc(N)nc(N)c3c2C)c1	2.21		
C1=C/COCc2cc(ccc2OCCN2CCCC2)Nc2nccc(n2)-c2cccc(c2)COC/1	0.58	3.82	27.7
Nc1nc2c(ncn2CCC(CO)CO)c(=O)[nH]1	9.36		
Cc1ccc(-c2cc(C(F)(F)F)nn2-c2ccc(S(N)(=O)=O)cc2)cc1	7.59		
Oc1ccc(CCNCCCCCCNCCc2ccccc2)cc1O	36		
CN=C1CN(O)C(c2ccccc2)=c2cc(Cl)ccc2=N1		0.25	
O=C(O)CCC(NC(=O)NC(CCCCNC(=O)c1ccc([18F])nc1)C(=O)O)C(=O)O (stereo not given)			3.47
C=CC[C@]1([C@H](C)C#CCC)C(=O)NC(=O)N(C)C1=O	13.3		
CNCC[C@H](Oc1ccc(C(F)(F)F)cc1)c1ccccc1	9.6		
C[C@@](Cc1ccc(O)c(O)c1)(NN)C(=O)O	18		
COC(=O)C(c1ccccc1)C1CCCCN1C(=O)OC[n+]1cccc(C(=O)NC(CO)C(=O)[O-])c1 (stereo not given)	60	29.3	5.7
C=CCN1CCc2nc(N)sc2CC1	7.38		

SMILES	clearance [mL/min/kg]	Vd [L/kg]	half-life [h]
O=C(O)CCC(NC(=O)NC(CCCCNC(=O)C(Cc1ccc2ccccc2c1)NC(=O)C1CCC(CNC(=O)CN2CCN(CC(=O)O)CCN(CC(=O)O)CCN(CC(=O)O)CC2)CC1)C(=O)O)C(=O)O (stereo not given)	0.567	2.05	41.6
NC(=O)c1ccc2c(c1O)[C@]13CCN(CC4CC4)[C@H](C2)[C@]1(O)CCC(=O)C3	11.1		9
CN1c2c(oc(=O)n(-c3ccccn3)c2=O)-c2ccccc2S1(=O)=O	0.05		
CCN(CC)CC#CCOC(=O)[C@](O)(c1ccccc1)C1CCCCC1	8.1		
Cc1ccc2nc(N)[nH]c(=O)c2c1Sc1ccncc1	2.36		
Cc1cccc(C)c1OC[C@@H](C)N	6.3		
C=CC(=O)Nc1cc(Nc2ncc(C(=O)OC(C)C)c(-c3cn(C)c4ccccc34)n2)c(OC)cc1N(C)CCN(C)C	38.3	58.5	18
C[C@]1(Cn2ccnn2)C(C(=O)O)N2C(=O)C[C@@H]2S1(=O)=O (stereo not given in full)	2.91		
NC(=O)CN1CCCC1=O	1.3		
Nc1nc(NC2CC2)c2ncn([C@@H]3C=C[C@H](CO)C3)c2n1	13.1		
CNCc1cc(-c2ccccc2F)n(S(=O)(=O)c2cccnc2)c1	22.6	13	6.8
C[C@H](NCCC(c1ccccc1)c1ccccc1)c1ccccc1	20		
CCCN(CC)C(CC)C(=O)Nc1c(C)cccc1C (stereo not given)	15.9		
Cc1cc(O)c(C(=O)NC(C(=O)NC2C(=O)N3C(C(=O)O)=C(CSc4nnnn4C)CS[C@H]23)c2ccc(O)cc2)cn1 (stereo not given in full)	0.28		
Oc1ccc2c3c1O[C@@H]1[C@@H](O)CC[C@]4(O)[C@H](C2)N(CC2CCC2)CC[C@@]314	29.7		
COc1ccc(NC(=O)\C=C(C)/C=C/C=C(C)\C=C\C2=C(C)CCCC2(C)C)cc1	98.9		
[2H]C([2H])([2H])NC(=O)c1nnc(NC(=O)C2CC2)cc1Nc1cccc(-c2ncn(C)n2)c1OC	0.68	2.33	10
O=C(O)C1C[C@H](C2CCCCC2)CN1C(=O)C[P@](=O)(O)CCCCc1ccccc1 (stereo not given in full)	0.46		
CC1(C)S[C@H]2C(NC(=O)C(NC(=O)N3CCN(S(C)(=O)=O)C3=O)c3ccccc3)C(=O)N2C1C(=O)O (stereo not given in full)	2.71		
NC[C@H]1O[C@@H](O[C@H]2C(O)[C@@H](O[C@H]3O[C@@H](CO)[C@H](O)[C@@H](N)[C@@H]3O)[C@H](N)C[C@@H]2N)[C@H](N)C[C@@H]1O (stereo not given in full)	1.35		
CC(C)NC[C@@H](O)COc1ccc(CCOCC2CC2)cc1	4.7		
C[C@H](NCCc1ccc(O)cc1)[C@H](O)c1ccc(O)cc1	8.67		
CC(C)N(CC[C@@](C(N)=O)(c1ccccc1)c1ccccn1)C(C)C	2.7		
CC(C(=O)O)c1ccc2oc(-c3ccc(Cl)cc3)nc2c1 (stereo not given)	0.07		
CC(C)NC[C@@H](O)c1ccc(NS(C)(=O)=O)cc1	2.14		
Cc1ccc(NC(=O)C2CCCN(C(=O)c3c(C)cccc3F)[C@H]2c2ccc(NC3CCCC3)cc2)cc1C(F)(F)F (stereo not given in full)	4.53	5.75	97.6
